Results published in patent US9850283B2, “Macrocyclic inhibitors of the PD-1/PD-L1 and CD80(B7-1)/PD-L1 protein/protein interactions” (BRISTOL-MYERS SQUIBB COMPANY, priority 2013, dated 2017).
Where two headings read alike, the source gives them in different places. Starred links: 1 amine or outer side, 2 acyl side, 3 side chain; linkers in the order of their positions; H or OH if unused. Positions of bridges follow the written chain, without caps; N, C: chain ends. Non-standard residues stand in square brackets, D forms with d. Residues, ends and D or L forms follow the SMILES beside them. Ala(4-thiazolyl) = N[C@@H](Cc1cscn1)C(=O)O; X11 = CC1(C)CC[C@H](C(=O)[*:2])N1[*:1]; Hyp = O=C(O)[C@@H]1C[C@@H](O)CN1; NMeF = CN[C@@H](Cc1ccccc1)C(=O)O; tBuAla = CC(C)(C)C[C@H](N)C(=O)O; dHyp = O=C(O)[C@H]1C[C@H](O)CN1; NMeNle = CCCC[C@H](NC)C(=O)O; NMeA = CN[C@@H](C)C(=O)O; Dap = NC[C@H](N)C(=O)O; Sar = CNCC(=O)O

Columns and labels:
Human PD-L1/PD-1 = molecular target: T1, Human PD-L1/PD-1 (Homo sapiens, UniProt Q9NZQ7); assay: HTRF PD-1-Ig/PD-L1-His binding assay (human PD-L1)
T1 construct: made in house; host or cells: HEK293T
How it was run: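 Readout: time-resolved FRET between Eu cryptate-labeled anti-Ig (1 nM final) and APC-labeled anti-His (20 nM final) antibodies. These detect interaction of Fc-fused PD-1 with His-tagged human PD-L1 in dPBS containing 0.1% BSA and 0.05% Tween-20.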

[1] = molecular target: T2, LK35.2-hPD-L1 cells / PE-labeled PD-1-Ig (Homo sapiens, UniProt Q9NZQ7); assay: LK35.2-hPD-L1 cell binding high-content screening assay; type: cell-based
T2 construct: expressed in transfected cells; host or cells: LK35.2 mouse B cell line
Procedure: LK35.2-hPD-L1 Cell Binding High-Content Screening Assay. Phycoerythrin (PE) was covalently linked to the Ig epitope tag of human PD-1-Ig and fluorescently-labeled PD-1-Ig was used for binding studies with a mouse B cell line (LK35.2) stably over-expressing human PD-L1 (LK35.2-hPD-L1). Briefly, 3×10^3 LK35.2-hPD-L1 cells were seeded into 384 well plates in 20 ul of RPMI supplemented with 10% fetal calf serum and cultured overnight. 125 nl of compound was added to cells, followed by 5 ul of PE-labeled PD-1-Ig (1 nM final), diluted in RPMI supplemented with 10% fetal calf serum, followed by incubation at 37° C. for 1 h. […] Cells were washed 3× in 100 ul of dPBS followed by final addition of 15 ul of dPBS. Data was collected and processed using a Cell Insight NXT High Content Imager and associated software.

[2] = cluster symbol, read-out: HTRF IC50 cluster
[3] = cluster symbol, cell line of CBA not given (LK35.2-hPD-L1 or 293T-hPD-L1), read-out: CBA IC50 cluster
[4] = cell binding assay, cell line not given, cluster symbol, read-out: CBA IC50 cluster

T2 sequence (Q9NZQ7 19-290): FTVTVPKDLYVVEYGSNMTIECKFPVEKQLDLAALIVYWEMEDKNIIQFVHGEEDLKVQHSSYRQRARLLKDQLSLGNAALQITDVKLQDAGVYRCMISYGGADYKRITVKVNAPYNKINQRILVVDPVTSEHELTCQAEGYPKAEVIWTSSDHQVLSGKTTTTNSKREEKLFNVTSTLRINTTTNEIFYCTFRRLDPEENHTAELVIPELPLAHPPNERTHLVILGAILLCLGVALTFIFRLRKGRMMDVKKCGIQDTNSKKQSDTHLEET
T1 sequence (Q9NZQ7 with tags, fused parts or gaps): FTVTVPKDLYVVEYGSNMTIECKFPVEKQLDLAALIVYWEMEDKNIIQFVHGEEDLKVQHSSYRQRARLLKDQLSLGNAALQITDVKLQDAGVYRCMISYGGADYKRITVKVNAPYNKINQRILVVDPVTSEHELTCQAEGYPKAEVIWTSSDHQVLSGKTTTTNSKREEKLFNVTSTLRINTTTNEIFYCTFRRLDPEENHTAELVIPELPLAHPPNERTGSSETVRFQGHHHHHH

SMILES | IC50 (Human PD-L1/PD-1; read-out: HTRF IC50 value) | IC50 ([1]; cell line of CBA not given (LK35.2-hPD-L1 or 293T-hPD-L1), read-out: CBA IC50 value) | IC50 (Human PD-L1/PD-1; [2]) | IC50 [1, 3] | IC50 [1, 4]
CCCC[C@H]1C(=O)N(C)[C@@H](CCCC)C(=O)N[C@@H](CCCNC(=N)N)C(=O)N[C@H](C(=O)NCC(N)=O)CSCC(=O)N[C@@H](Cc2ccccc2)C(=O)N(C)[C@@H](C)C(=O)N[C@@H](CC(N)=O)C(=O)N2CCC[C@H]2C(=O)N[C@@H](Cc2cnc[nH]2)C(=O)N[C@@H](CC(C)C)C(=O)N(C)CC(=O)N[C@@H](Cc2cscn2)C(=O)N[C@@H](CO)C(=O)N[C@@H](Cc2c[nH]c3ccccc23)C(=O)N1C [Example 1010] ({CH2CO}-F[NMeA]NPHL[Sar][Ala(4-thiazolyl)]SW[NMeNle][NMeNle]RCG-NH2; thioether N-14) | > 10000 nM | > 10000 nM |  |  | 
CCCC[C@H]1C(=O)N(C)CC(=O)N[C@@H](CC(=O)O)C(=O)N[C@@H](C(C)C)C(=O)N(C)[C@@H](Cc2ccccc2)C(=O)N[C@@H](Cc2ccc(O)cc2)C(=O)N2[C@H](CCC2(C)C)C(=O)N[C@@H](Cc2c[nH]c3ccccc23)C(=O)N[C@@H](Cc2ccc(O)cc2)C(=O)N[C@@H](CC(C)C)C(=O)N[C@H](C(=O)NCC(N)=O)CSCC(=O)N[C@@H](Cc2ccccc2)C(=O)N(C)[C@@H](Cc2ccccc2)C(=O)N1C [Example 3184] ({CH2CO}-F[NMeF][NMeNle][Sar]DV[NMeF]Y[X11]WYLCG-NH2; thioether N-13) |  |  | > 30.5 nM | > 74.3 nM | 
CCCC[C@H]1C(=O)N(C)[C@@H](CCCC)C(=O)N[C@@H](CC(C)C)C(=O)N[C@H](C(=O)NCC(N)=O)CSCC(=O)N[C@@H](Cc2ccc(O)cc2)C(=O)N(C)[C@@H](C)C(=O)N[C@@H](CC(N)=O)C(=O)N2CCC[C@H]2C(=O)N[C@@H](CN)C(=O)N[C@@H](CC(C)(C)C)C(=O)N2C[C@H](O)C[C@H]2C(=O)N[C@@H](Cc2c[nH]c3ccccc23)C(=O)N[C@@H](CO)C(=O)N[C@@H](Cc2c[nH]c3ccccc23)C(=O)N1C [Example 5083] ({CH2CO}-Y[NMeA]NP[Dap][tBuAla][Hyp]WSW[NMeNle][NMeNle]LCG-NH2; thioether N-14) |  |  | 0.385 to 6.74 nM |  | 0.158 to 4.71 nM
CCCC[C@H]1C(=O)N(C)CC(=O)N[C@@H](CC(=O)O)C(=O)N[C@@H](C(C)C)C(=O)N(C)[C@@H](Cc2ccccc2)C(=O)N[C@@H](Cc2ccc(O)cc2)C(=O)N(C)CC(=O)N[C@@H](Cc2c[nH]c3ccccc23)C(=O)N[C@@H](Cc2ccc(O)cc2)C(=O)N[C@@H](CC(C)C)C(=O)N[C@H](C(=O)NCC(N)=O)CSCC(=O)N[C@@H](Cc2ccc(OC)cc2)C(=O)N(C)[C@@H](Cc2ccccc2)C(=O)N1C [Example 3089] ({CH2CO}-Y(Me)[NMeF][NMeNle][Sar]DV[NMeF]Y[Sar]WYLCG-NH2; thioether N-13) |  |  | > 30.5 nM | > 74.3 nM | 
CCCC[C@H]1C(=O)N(C)CC(=O)N[C@@H](CC(=O)O)C(=O)N[C@@H](C(C)C)C(=O)N(C)[C@@H](Cc2ccccc2)C(=O)N[C@@H](Cc2ccc(O)cc2)C(=O)N(C)CC(=O)N[C@@H](Cc2c[nH]c3ccccc23)C(=O)N[C@@H](Cc2ccc(O)cc2)C(=O)N2CCC[C@@H]2C(=O)N[C@H](C(=O)NCC(N)=O)CSCC(=O)N[C@@H](Cc2ccccc2)C(=O)N(C)[C@@H](Cc2ccccc2)C(=O)N1C [Example 3565] (HELM PEPTIDE1{[O=C(C[*:3])[*:2]].F.[meF].[CCCC[C@@H](C(=O)[*:2])N(C)[*:1]].[Sar].D.V.[meF].Y.[Sar].W.Y.[dP].C.G.[am]}$PEPTIDE1,PEPTIDE1,1:R3-14:R3$$$V2.0) |  |  | > 30.5 nM |  | > 74.3 nM
CCCC[C@H]1C(=O)N(C)CC(=O)N[C@@H](CC(=O)O)C(=O)N[C@@H](C(C)C)C(=O)N(C)[C@@H](Cc2ccccc2)C(=O)N[C@@H](Cc2ccc(O)cc2)C(=O)N2C[C@@H](O)C[C@@H]2C(=O)N[C@@H](Cc2c[nH]c3ccccc23)C(=O)N[C@@H](Cc2ccc(O)cc2)C(=O)N[C@@H](CC(C)C)C(=O)N[C@H](C(=O)NCC(N)=O)CSCC(=O)N[C@@H](Cc2ccccc2)C(=O)N(C)[C@@H](Cc2ccccc2)C(=O)N1C [Example 3583] ({CH2CO}-F[NMeF][NMeNle][Sar]DV[NMeF]Y[dHyp]WYLCG-NH2; thioether N-13) |  |  |  |  | 0.158 to 4.71 nM
